How the values were obtained:
[1] = USP #2 paddle dissolution test: release of active in pH 1.2 or pH 6.8 buffer; format: physicochemical; conditions: for total release of active (in words): CMCAB tablets (Formulations E17, E18, E20), pH 1.2
Description: The dissolution tests were done using a USP #2 calibrated apparatus Varian VK 7000 with Teflon paddles. The pills were added to 900 ml of USP 1.2 pH buffer or to 900 ml of USP pH 6.8 buffer. The buffer solutions had each been degassed at 41° C. through a 0.45 micron hydrophilic polypropylene filter and held under vacuum for an additional 5 minutes. After the solutions were added to the dissolution vessels, the solutions were held at 37.3° C. in the water bath for 30 minutes to achieve constant temperature, prior to the addition of the tablets. The tablets were weighted down with a Varian 3-pronged capsule weight. At the beginning of each run, the tablets were allowed to sink to the bottom of the 1000 ml vessel, the stirrers were turned on at 50 rpm and samples taken as a function of time, using polypropylene syringes. The samples were filtered through 0.45 micron filters and immediately analyzed for the amount of aspirin in the solution. The wavelength for measuring the amount of aspirin (salicylic acid acetate) at pH 1.2 was 279 nm, which was the wavelength for equivalent molar absorptivities for both salicylic acid and aspirin using a Varian UV-VIS Spectrophotometer and quartz absorption cells. Similarly, the wavelength used to measure the concentration of the aspirin in pH 6.8 buffer was 267 nm, which was the wavelength where the molar absorptivity for salicylic acid and aspirin are equivalent at pH 6.8. This allowed accurate measurement of the release rate profile without having to worry about the degradation of the aspirin to salicylic acid with time. Each set of experiments had appropriate standards for reference for quantitative analysis. In the cases where the samples contained Vitamin E-TPGS, HPLC with UV detection was done to analyze for aspirin and salicylic acid.
6.0069 g CMCAB was mixed with 1.4937 g Fexofenadine HCl and 10.7693 g ethanol. The clear solution was allowed to dry into a clear film. The amorphous compatible film was then ground in a SPEX™ liquid nitrogen Freezer Mill for 6 minutes at 75% maximum speed. Torpac Inc. #2 Gelatin capsules were filled with the powdered polymer blend and tested using a Varian VK7000 USP II dissolution device at pH 1.2 and pH 6.8. The dissolution results are shown in FIG. 24, which is a plot of fexofenadine released from CMCAB solid dispersion (y-axis) versus time (minutes, x-axis) for Formulation E24 in Example 4. […] By varying the way the carboxyalkyl cellulose ester is mixed with the active, the rate of release can be varied so that one can achieve near zero order release of the active over a long period of time.

[2] = cited from earlier work

| SMILES | pH dependence of release ([1]; CMCAB tablet (Formulation E22), pH 1.2 versus pH 6.8) | duration of near zero order release ([1]; CMCAB tablet at 25% active (Formulation E22)) | water solubility [2] | total release of active (in words) [1] |
| --- | --- | --- | --- | --- |
| OC(Cn1cncn1)(Cn1cncn1)c1ccc(F)cc1F [fluconazole] | little pH dependence | up to 500 minutes | highly water soluble |  |
| CC(C)Cc1ccc(C(C)C(=O)O)cc1 (stereo not drawn) [ibuprofen] |  |  |  | low total release |
| Cc1nnc(NS(=O)(=O)c2ccc(N)cc2)s1 [sulfamethizole] |  |  |  | low total release |
| COc1cc(Cc2cnc(N)nc2N)cc(OC)c1OC [trimethoprim] |  |  |  | low total release |

Source: patent US20070104787A1, “Carboxyalkyl cellulose esters for sustained delivery of pharmaceutically active substances” (priority 2005, published 2007)
